Measurements: patent publication US20140023657A1, “IN VITRO METHOD FOR IDENTIFYING COMPOUNDS FOR CANCER THERAPY” (CONSEJO SUPERIOR DE INVESTIGACIONES CIENTIFICAS, priority 2005, published 2014)
Like-named read-outs stand apart in the source and are kept apart here.

Experiments:
BEC = assay: Antiproliferative effect of ChoK inhibition, primary bronchial epithelial cells; assay type: cell-based, human
Description: (§1) First, the mRNA levels corresponding to said enzyme in cell lines derived from patients with lung cancer were detected again by means of automated real-time quantitative PCR reactions with specific Taqman probes. They were carried out both on cell lines corresponding to the most common type of lung cancer (75-85%), non-microcytic or NSCLC (non small cell lung cancer), represented by lines H460 and H1299, and on lines corresponding to the other type of cancer, microcytic or SCLC (small cell lung cancer), represented by lines H510 and H82, the data being represented in logarithmic scale relating to normal primary human bronchial epithelial cells, BEC. […] An increase with respect to the controls, which is particularly considerable in the case of the SCLC lines, especially H510, is observed in all cases.
(§2) The antiproliferative effect of ChoK inhibition in said cell lines caused by the addition of MN58b was also checked, obtaining the results shown in the following Table, in which the numbers between parentheses indicate the sensitivity of each cell compared with the primary cells. The differences between the primary cells and the four cell lines derived from tumors were significant (p:<0.001) in all the analyzed time periods.

HMEC [1] = assay: Antiproliferative effect of ChoK inhibition, primary mammary epithelial cells; assay type: cell-based, human
From the text: as §2

H1299 = assay: Antiproliferative effect of ChoK inhibition, NSCLC line; assay type: cell-based, human; settings: for IC50: H1299 (NSCLC); for sensitivity of the cell compared with the primary cells: number in parentheses
Description: as §1, §2

H460 = assay: as above; assay type: cell-based, human; settings: for IC50: H460 (NSCLC); for sensitivity of the cell compared with the primary cells: number in parentheses
Description: as §1, §2

H510 = assay: Antiproliferative effect of ChoK inhibition, SCLC line; assay type: cell-based, human; settings: for IC50: H510 (SCLC); for sensitivity of the cell compared with the primary cells: number in parentheses
Description: as §1, §2

H82 = assay: as above; assay type: cell-based, human; settings: for IC50: H82 (SCLC); for sensitivity of the cell compared with the primary cells: number in parentheses
Description: as §1, §2

[2] = molecular target: T1, recombinant human choline kinase alpha (Homo sapiens, UniProt P35790); assay: Enzymatic activity of recombinant choline kinase isoforms in E. coli extracts; assay type: biochemical; settings: recombinant isoforms expressed in E. coli
T1 construct: made in house; host or cells: E. coli
T1 sequence (P35790 whole entry, canonical isoform): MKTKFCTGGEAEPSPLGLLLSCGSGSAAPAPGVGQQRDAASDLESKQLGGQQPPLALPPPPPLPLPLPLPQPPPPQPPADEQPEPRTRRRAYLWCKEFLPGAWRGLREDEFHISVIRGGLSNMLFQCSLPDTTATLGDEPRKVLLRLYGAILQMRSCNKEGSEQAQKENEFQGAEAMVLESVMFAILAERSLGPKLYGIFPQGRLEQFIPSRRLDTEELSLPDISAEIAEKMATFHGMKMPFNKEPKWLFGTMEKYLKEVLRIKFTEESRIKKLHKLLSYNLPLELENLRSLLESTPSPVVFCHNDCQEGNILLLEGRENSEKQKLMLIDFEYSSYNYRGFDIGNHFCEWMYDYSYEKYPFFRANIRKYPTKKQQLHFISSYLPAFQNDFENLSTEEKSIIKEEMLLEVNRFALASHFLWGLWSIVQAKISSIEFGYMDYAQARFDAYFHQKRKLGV
Description: FIG. 9: Specificity of the inhibitor MN58b on choline kinase alpha. E. coil extracts in which recombinant human choline kinase alpha or choline kinase beta proteins are expressed were analyzed in the absence (0) or in the presence of increasing concentrations of MN58b.
Once the oncogenic activity of the choline kinase alpha isoform, as well as its high incidence of overexpression in human tumors was verified, it was then studied if the anti-tumor effect of the inhibitor MN58b [Hernández-Alcoceba, R., Saniger, L., Campos, J., Núñdez, M. C., Khaless, F., Gallo, M. Á., Espinosa, A., Lacal, J. C. Oncogene, 15, 2289-2301 (1997); Hernández-Alcoceba, R., Fernández, F., Lacal J. C. Cancer Res. 55, 3112-3118 (1999); Ramirez de Molina A., Bañez-Coronel M., Gutiérrez R., Rodriguez González A., Olmeda D., Megias D., Lacal J. C. Cancer Res. 64:6732-6739 (2004)] is specific for this choline kinase alpha isoform or if, in contrast, it could also be attributed to its possible interaction with the choline kinase beta isoform. This verification is necessary because the two choline kinase alpha and choline kinase beta isoforms share up to 75% homology in the substrate binding domains and in the catalytic region. […]

[3] = test system: HEK293T cells transfected with the cka gene; assay: Growth of tumors induced by choline kinase alpha overexpression in Nu/Nu mice; assay type: in vivo; settings: 5 mg/Kg intraperitoneally, 5 consecutive days with 9 days of rest
Description: Given that tumors have been generated in vivo by overexpressing choline kinase alpha and that MN58b is specific for this isoform, it has been verified if the growth of the tumors induced by ChoKα is susceptible to inhibition by MN58b. […] When the tumors reached a tumor volume of 0.1 cm^3, treatment with the specific choline kinase alpha inhibitor, MN58b, began, which was administered intraperitoneally in sterile physiological serum for 5 consecutive days with 9 days of rest at a dose of 5 mg/Kg. The control mice received equivalent carrier doses, following the same calendar and the tumors were monitored at least twice a week.

Ch-ind-1 cells = assay: Proliferation of inducible interference line with chemical ChoK inhibitors; assay type: cell-based, human; settings: Ch-ind-1, analogous to parent MDA-MB-231
From the text: FIG. 23: Proliferation of MDA-MB-231 (upper row of plaques) and Ch-ind-1 (lower row of plaques) cells in growth permissive conditions (“Control” column? or in the presence of the chemical inhibitors of choline kinase MN58b (middle column) or RSM936 (right column).
FIGS. 23 and 24 show the results obtained in Ch-ind-1 cells, a cell line derived from MDA-MB-231, capable of expressing the interference construction after treatment with the inducing agent doxocycline. […] The genetic inhibition of ChoKα is correlated with a reduction of cell proliferation (determined by pCNA) and an increase of cell death due to apoptosis (determined by PARPdig, degraded PARP protein, which is an indicator of apoptosis). The effect begins to be seen after 10 days, although it is still very initial, and is much more pronounced 20 days after the beginning of the experiment (in which the population has very little ChoKα expression).

MDA-MB-231 = settings: MDA-MB-231, previously described; cited from earlier work
HMEC [4] = settings: cited from earlier work

MN58b
IC50 (BEC; 48 h, read-out: 48 h IC50): 40500 ± 6200 nM
IC50 (BEC; 72 h, read-out: 72 h IC50): 18300 ± 4800 nM
IC50 (BEC; 114 h, read-out: 114 h IC50): 4200 ± 800 nM
IC50 (HMEC [1]; 48 h, read-out: 48 h IC50): 44700 ± 4950 nM
IC50 (HMEC [1]; 72 h, read-out: 72 h IC50): 20900 ± 2700 nM
IC50 (HMEC [1]; 114 h, read-out: 114 h IC50): 3400 ± 130 nM
IC50 (H1299; 48 h, read-out: 48 h IC50): 10300 ± 2500 nM
IC50 (H1299; 72 h, read-out: 72 h IC50): 2700 ± 700 nM
IC50 (H1299; 114 h, read-out: 114 h IC50): 900 ± 100 nM
sensitivity of the cell compared with the primary cells (H1299; H1299, 48 h): 4
sensitivity of the cell compared with the primary cells (H1299; H1299, 72 h): 8
sensitivity of the cell compared with the primary cells (H1299; H1299, 114 h): 4
IC50 (H460; 48 h, read-out: 48 h IC50): 7030 ± 2030 nM
IC50 (H460; 72 h, read-out: 72 h IC50): 2600 ± 800 nM
IC50 (H460; 114 h, read-out: 114 h IC50): 1100 ± 100 nM
sensitivity of the cell compared with the primary cells (H460; H460, 48 h): 6
sensitivity of the cell compared with the primary cells (H460; H460, 72 h): 8
sensitivity of the cell compared with the primary cells (H460; H460, 114 h): 3
IC50 (H510; 48 h, read-out: 48 h IC50): 1100 ± 100 nM
IC50 (H510; 72 h, read-out: 72 h IC50): 400 ± 50 nM
IC50 (H510; 114 h, read-out: 114 h IC50): 100 ± 30 nM
sensitivity of the cell compared with the primary cells (H510; H510, 48 h): 41
sensitivity of the cell compared with the primary cells (H510; H510, 72 h): 53
sensitivity of the cell compared with the primary cells (H510; H510, 114 h): 27
IC50 (H82; 48 h, read-out: 48 h IC50): 1900 ± 200 nM
IC50 (H82; 72 h, read-out: 72 h IC50): 800 ± 40 nM
IC50 (H82; 114 h, read-out: 114 h IC50): 270 ± 10 nM
sensitivity of the cell compared with the primary cells (H82; H82, 48 h): 24
sensitivity of the cell compared with the primary cells (H82; H82, 72 h): 27
sensitivity of the cell compared with the primary cells (H82; H82, 114 h): 12
times more active against choline kinase alpha than against choline kinase beta [2]: 20 times
tumor growth reduction [3]: 80%
sensitivity of proliferation to chemical inhibition of ChoKα (Ch-ind-1 cells): sensitive to the chemical inhibition
anti-tumor effect of pharmacological inhibition of choline kinase (MDA-MB-231): strong anti-tumor effect due to apoptosis induction
cell fate of primary cells after treatment (HMEC [4]; HMEC treated with the inhibitor): cycle-arrested
effect on the viability of normal primary cells (HMEC [4]; HMEC, chemical inhibitor): no effect on the viability
